Broadly, the IC50 is the point on the concentration scale where inhibition reaches its midpoint.

Each structure is given as a SMILES string. Some results are limits rather than exact numbers.

T1 sequence (Q15858 whole entry): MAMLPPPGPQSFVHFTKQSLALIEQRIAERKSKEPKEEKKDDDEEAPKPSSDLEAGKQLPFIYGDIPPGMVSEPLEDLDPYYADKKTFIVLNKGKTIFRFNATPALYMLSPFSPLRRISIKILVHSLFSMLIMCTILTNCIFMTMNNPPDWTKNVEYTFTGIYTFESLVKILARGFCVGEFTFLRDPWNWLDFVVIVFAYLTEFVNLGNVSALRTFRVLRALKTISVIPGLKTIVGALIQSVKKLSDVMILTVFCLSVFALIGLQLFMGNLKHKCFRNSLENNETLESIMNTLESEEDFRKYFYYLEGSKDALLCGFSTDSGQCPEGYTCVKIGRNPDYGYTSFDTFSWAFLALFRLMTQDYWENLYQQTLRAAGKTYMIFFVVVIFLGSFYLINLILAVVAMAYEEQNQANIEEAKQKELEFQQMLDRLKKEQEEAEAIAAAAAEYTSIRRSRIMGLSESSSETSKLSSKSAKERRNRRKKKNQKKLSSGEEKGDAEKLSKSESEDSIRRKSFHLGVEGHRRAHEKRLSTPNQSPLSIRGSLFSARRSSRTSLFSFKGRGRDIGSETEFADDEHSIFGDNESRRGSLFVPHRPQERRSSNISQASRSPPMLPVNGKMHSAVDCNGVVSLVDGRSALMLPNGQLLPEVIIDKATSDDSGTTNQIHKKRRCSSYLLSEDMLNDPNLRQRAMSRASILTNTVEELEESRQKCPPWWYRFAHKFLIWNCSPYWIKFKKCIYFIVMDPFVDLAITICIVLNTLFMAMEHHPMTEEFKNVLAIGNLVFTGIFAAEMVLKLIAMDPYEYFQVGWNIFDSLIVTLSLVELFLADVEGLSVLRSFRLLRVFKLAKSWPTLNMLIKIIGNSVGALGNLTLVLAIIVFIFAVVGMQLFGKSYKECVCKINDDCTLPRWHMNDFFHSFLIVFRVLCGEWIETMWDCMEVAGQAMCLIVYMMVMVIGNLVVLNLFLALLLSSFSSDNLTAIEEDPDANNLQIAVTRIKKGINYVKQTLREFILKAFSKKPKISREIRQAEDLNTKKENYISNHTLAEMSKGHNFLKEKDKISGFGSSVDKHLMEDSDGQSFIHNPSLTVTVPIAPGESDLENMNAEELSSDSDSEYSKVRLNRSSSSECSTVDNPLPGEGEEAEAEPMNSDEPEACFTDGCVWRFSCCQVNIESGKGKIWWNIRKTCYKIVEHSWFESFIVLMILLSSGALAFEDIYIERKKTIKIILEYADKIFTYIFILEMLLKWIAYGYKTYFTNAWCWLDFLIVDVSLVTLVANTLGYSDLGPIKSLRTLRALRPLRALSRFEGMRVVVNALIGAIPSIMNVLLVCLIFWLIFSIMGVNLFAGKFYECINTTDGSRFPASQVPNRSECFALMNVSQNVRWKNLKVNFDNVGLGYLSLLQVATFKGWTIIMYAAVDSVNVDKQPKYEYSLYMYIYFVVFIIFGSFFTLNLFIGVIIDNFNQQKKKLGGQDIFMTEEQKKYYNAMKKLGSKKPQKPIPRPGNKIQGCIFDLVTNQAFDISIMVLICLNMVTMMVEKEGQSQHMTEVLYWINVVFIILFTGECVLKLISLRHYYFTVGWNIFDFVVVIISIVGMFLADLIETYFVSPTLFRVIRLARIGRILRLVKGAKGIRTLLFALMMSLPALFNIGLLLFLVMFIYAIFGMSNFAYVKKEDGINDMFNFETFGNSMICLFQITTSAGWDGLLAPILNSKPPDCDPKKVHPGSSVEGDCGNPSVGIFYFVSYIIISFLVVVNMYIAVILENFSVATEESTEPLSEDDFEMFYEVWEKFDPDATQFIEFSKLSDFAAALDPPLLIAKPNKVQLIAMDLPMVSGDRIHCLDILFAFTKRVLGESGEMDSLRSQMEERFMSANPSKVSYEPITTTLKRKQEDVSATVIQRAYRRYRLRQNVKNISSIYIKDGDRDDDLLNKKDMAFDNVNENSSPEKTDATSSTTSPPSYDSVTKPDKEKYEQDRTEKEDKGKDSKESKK
T2 sequence (Q14524 whole entry): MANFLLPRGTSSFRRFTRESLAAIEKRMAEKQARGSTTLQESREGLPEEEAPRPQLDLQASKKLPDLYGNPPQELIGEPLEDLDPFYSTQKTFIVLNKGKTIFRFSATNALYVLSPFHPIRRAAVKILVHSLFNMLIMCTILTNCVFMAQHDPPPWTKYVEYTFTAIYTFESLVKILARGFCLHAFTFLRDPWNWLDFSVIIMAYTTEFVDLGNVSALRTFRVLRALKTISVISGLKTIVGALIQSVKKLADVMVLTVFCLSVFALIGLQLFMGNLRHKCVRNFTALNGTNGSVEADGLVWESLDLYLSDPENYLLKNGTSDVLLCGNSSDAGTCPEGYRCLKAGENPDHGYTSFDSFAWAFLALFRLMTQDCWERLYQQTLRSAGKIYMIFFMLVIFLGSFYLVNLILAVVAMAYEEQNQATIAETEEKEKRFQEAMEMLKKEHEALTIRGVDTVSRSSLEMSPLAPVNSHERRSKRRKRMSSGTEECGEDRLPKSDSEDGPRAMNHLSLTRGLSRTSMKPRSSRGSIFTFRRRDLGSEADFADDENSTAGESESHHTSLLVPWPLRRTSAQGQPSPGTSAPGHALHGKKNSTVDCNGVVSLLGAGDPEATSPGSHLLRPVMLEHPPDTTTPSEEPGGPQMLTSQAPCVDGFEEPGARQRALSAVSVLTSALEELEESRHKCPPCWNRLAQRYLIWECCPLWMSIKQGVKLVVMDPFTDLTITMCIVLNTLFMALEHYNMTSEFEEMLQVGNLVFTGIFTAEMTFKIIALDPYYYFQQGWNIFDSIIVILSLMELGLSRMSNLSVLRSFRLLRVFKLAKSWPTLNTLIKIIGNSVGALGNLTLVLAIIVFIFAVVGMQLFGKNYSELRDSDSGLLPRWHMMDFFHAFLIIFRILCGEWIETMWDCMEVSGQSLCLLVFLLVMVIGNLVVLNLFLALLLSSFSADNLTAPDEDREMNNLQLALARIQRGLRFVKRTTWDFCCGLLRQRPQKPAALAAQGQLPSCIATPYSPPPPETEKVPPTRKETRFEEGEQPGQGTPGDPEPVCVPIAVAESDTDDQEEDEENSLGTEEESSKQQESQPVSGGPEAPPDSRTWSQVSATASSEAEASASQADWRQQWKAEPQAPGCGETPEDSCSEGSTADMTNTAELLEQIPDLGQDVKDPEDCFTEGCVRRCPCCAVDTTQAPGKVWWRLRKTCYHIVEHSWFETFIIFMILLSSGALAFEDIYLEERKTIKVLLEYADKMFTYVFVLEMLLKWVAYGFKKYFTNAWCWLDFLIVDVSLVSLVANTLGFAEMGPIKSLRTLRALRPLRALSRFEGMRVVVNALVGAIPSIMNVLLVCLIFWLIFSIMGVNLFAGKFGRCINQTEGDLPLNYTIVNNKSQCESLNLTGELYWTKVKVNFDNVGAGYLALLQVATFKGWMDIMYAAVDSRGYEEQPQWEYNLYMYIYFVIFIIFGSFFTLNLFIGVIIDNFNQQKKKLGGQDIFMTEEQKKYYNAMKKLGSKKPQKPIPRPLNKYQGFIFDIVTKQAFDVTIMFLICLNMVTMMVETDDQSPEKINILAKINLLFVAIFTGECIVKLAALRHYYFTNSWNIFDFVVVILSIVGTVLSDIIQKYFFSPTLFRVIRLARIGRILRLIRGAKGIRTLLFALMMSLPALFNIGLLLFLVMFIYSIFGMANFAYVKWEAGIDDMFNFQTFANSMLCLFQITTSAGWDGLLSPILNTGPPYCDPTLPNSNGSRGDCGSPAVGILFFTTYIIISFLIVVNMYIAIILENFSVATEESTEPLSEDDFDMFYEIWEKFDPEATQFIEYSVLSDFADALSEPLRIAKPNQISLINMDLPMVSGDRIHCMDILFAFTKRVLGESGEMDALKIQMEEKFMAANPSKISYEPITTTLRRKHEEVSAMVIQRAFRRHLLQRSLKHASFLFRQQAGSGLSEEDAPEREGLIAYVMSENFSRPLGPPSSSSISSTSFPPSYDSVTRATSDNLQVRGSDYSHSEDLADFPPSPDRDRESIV

One assay addresses T1, human Nav1.7 (Homo sapiens, UniProt Q15858).
T1 construct: expressed in transfected cells; host or cells: HEK 293
Kind of assay: IonWorks Quattro automated patch-clamp, inactivated state block of Nav1.7. The assay is classed as cell-based.
Conditions: not given
As for the experimental part:
(§1) Compounds were tested on human Nav1.7 and Nav1.5 channels stably expressed in HEK 293 cells. […] Cells were sealed on a planar substrate using the Population Patch […] (PPC) technology. Electrical access was obtained using both nystatin and amphotericin. A double-pulse protocol was used for the determination of IC50 values for inactivated state block. Nav1.7 and Nav1.5 expressing cells were voltage clamped at −100 mV and −110 mV, respectively. A depolarizing prepulse to −10 mV (Nav1.7) or −30 mV (Nav1.5) for 1000 ms followed by a 10 ms repolarization to −100 mV (Nav1.7) or −110 mV (Nav1.5) was given to generate fractional channel inactivation of 50%, followed by a 10 ms test pulse to −10 mV (Nav1.7) or −30 mV (Nav1.5) to measure peak current in control conditions and after compound addition. The following recording solutions were used (mM). External: 150 NaCl, 2 CaCl2, 5 KCl, 1 Mg Cl2, 10 HEPES, 12 Dextrose; internal: 120 CsF, 30 CsCl, 10 EGTA, 5 HEPES, 5 NaF, 2 MgCl2.
(§2) For all electrophysiology experiments, offline analysis was used to determine percent inhibition as a function of drug concentration. IC50 values were determined by fitting to the Hill equation.
In general terms: The patch-clamp technique gives a direct electrical read-out from membranes.
`CC(CCCNc1cc(F)c(S(=O)(=O)Nc2nccs2)cc1Cl)NC[C@@H]1CCCN1` (single isomer, unassigned) registered an IC50 of 0.012 µM.

Still in this assay, the particulars now being: channels stably expressed in HEK 293 cells; double-pulse protocol, inactivated state block; read-out: potency for the Nav 1.7 sodium ion channel (IC50, as measured by IonWorks).
With `NCCNCCCCNc1cc(F)c(S(=O)(=O)Nc2ncns2)cc1Br` [Ex 16-88, 4-[4-(2-aminoethylamino)butylamino]-5-bromo-2-fluoro-N-(1,2,4-thiadiazol-5-yl)benzenesulfonamide], the IC50 is 0.0096 µM. Turning to `C[C@@H]1CN[C@H](CNCCCCNc2cc(F)c(S(=O)(=O)Nc3nccs3)cc2Cl)C1` [Ex 8-09, 5-chloro-2-fluoro-4-{[4-({[(2S,4S)-4-methylpyrrolidin-2-yl]-methyl}amino)butyl]amino}-N-1,3-thiazol-2-yl-benzenesulfonamide], the half-maximal inhibitory concentration (IC50) came out at 0.018 µM. On the same count and under the same terms, the same measure for `O=S(=O)(Nc1ncns1)c1cc(Cl)c(NCCCCNCCCNCCF)cc1F` [Ex 16-58, 5-chloro-2-fluoro-4-{[4-({3-[(2-fluoroethyl)amino]-propyl}amino)butyl]amino}-N-1,2,4-thiadiazol-5-yl-benzenesulfonamide]: 0.037 µM; for `O=S(=O)(Nc1nccs1)c1cc(Cl)c(NCCCCNC[C@@H]2CCCN2)cc1F` [Ex 1-06, 5-chloro-2-fluoro-4-[(4-{[(2S)-pyrrolidin-2-yl-methyl]amino}butyl)-amino]-N-1,3-thiazol-2-yl-benzenesulfonamide]: 0.015 µM. On the same count and under the same terms, the value for `NCCCNCCCCNc1cc(F)c(S(=O)(=O)Nc2ncc(F)s2)cc1Cl` [Ex 16-35, 4-({4[(3-aminopropyl)amino]-butyl}amino)-5-chloro-2-fluoro-N-(5-fluoro-1,3-thiazol-2-yl)benzene-sulfonamide] was 0.014 µM; that for `O=S(=O)(Nc1ncns1)c1cc(Cl)c(NCCCCN[C@@H]2CCNC2)cc1F` [Ex 16-19, 5-chloro-2-fluoro-4-({4-[(3R)-pyrrolidin-3-ylamino]-butyl}amino)-N-1,2,4-thiadiazol-5-ylbenzene-sulfonamide] was 0.011 µM; that for `C[C@H](CN)NCCCCNc1cc(F)c(S(=O)(=O)Nc2ncns2)cc1Br` [Ex 16-78, 4-[(4-{[(1R)-2-amino-1-methylethyl]amino}butyl)amino]-5-bromo-2-fluoro-N-1,2,4-thiadiazol-5-ylbenzenesulfonamide] was 0.012 µM.

Take `N[C@H]1CCC[C@@H]1NCCCCNc1cc(F)c(S(=O)(=O)Nc2nccs2)cc1Cl` [Ex 16-72, 4-[(4-{[(1S,2S)-2-aminocyclopentyl]amino}butyl)amino]-5-chloro-2-fluoro-N-1,3-thiazol-2-ylbenzenesulfonamide]: the IC50 was found to be 0.011 µM. Same read-out and setting: the value for `NC1(CNCCCCNc2cc(F)c(S(=O)(=O)Nc3ncc(F)s3)cc2Cl)CCC1` [Ex 16-69, 4-[(4-{[(1-aminocyclobutyl)methyl]amino}butyl)amino]-5-chloro-2-fluoro-N-(5-fluoro-1,3-thiazol-2-yl)benzenesulfonamide] was 0.018 µM; that for `CNCCNCCCCNc1cc(F)c(S(=O)(=O)Nc2nccs2)cc1Cl` [Ex 5-04] was 0.012 µM.

As to `O=S(=O)(Nc1nccs1)c1cc(Cl)c(NCCCCN[C@H]2CCCCNC2)cc1F` [Ex 16-41, (S)-4-{[4-(azepan-3-ylamino)-butyl]amino}-5-chloro-2-fluoro-N-1,3-thiazol-2-yl-benzenesulfonamide], the half-inhibitory concentration (IC50) amounted to 0.014 µM. Still for that read-out and setting: the value for `O=S(=O)(Nc1nccs1)c1cc(Cl)c(NCCCCNC[C@@H]2C[C@H](C(F)(F)F)CN2)cc1F` [Ex 8-12, 5-chloro-2-fluoro-N-1,3-thiazol-2-yl-4-{[4-({[(2S,4S)-4-(trifluoromethyl)-pyrrolidin-2-yl]methyl}amino)butyl]amino}benzenesulfonamide] was 0.021 µM; that for `NC1(CNCCCCNc2cc(F)c(S(=O)(=O)Nc3ncns3)cc2Br)CC1` [Ex 16-89, 4-[4-[(1-aminocyclopropyl)methylamino]butylamino]-5-bromo-2-fluoro-N-(1,2,4-thiadiazol-5-yl)benzenesulfonamide] was 0.012 µM. In the case of `O=S(=O)(Nc1ncc(F)s1)c1cc(Cl)c(NCCCCNC[C@@H]2CCCN2)cc1F` [Ex 7-11, 5-chloro-2-fluoro-N-(5-fluoro-1,3-thiazol-2-yl)-4-[(4-{[(2S)-pyrrolidin-2-ylmethyl]amino}butyl)amino]benzenesulfonamide], the IC50 is 0.0099 µM.

For `O=S(=O)(Nc1nccs1)c1cc(Br)c(NCCCCNC[C@@H]2CCCN2)cc1F` [Ex 7-10, 5-bromo-2-fluoro-4-[(4-{[(2S)-pyrrolidin-2-ylmethyl]amino}butyl)amino]-N-1,3-thiazol-2-ylbenzenesulfonamide], the IC50 was 0.016 µM. For `O=S(=O)(Nc1ncns1)c1cc(Cl)c(NCCCCNC[C@@H]2CCN2)cc1F` [Ex 14-04, 4-[(4-{[(2S)-azetidin-2-yl-methyl]-amino}butyl)amino]-5-chloro-2-fluoro-N-1,2,4-thiadiazol-5-ylbenzene-sulfonamide], the IC50 was 0.014 µM. In the case of `CNCCCNCCCCNc1cc(F)c(S(=O)(=O)Nc2nccs2)cc1Br` [Ex 16-55, 5-bromo-2-fluoro-4-[(4-{[3-(methylamino)propyl]amino}butyl)amino]-N-1,3-thiazol-2-ylbenzenesulfonamide], the half-maximal inhibitory concentration (IC50) is 0.018 µM.

In the case of `CC(C)(CN)NCCCCNc1cc(F)c(S(=O)(=O)Nc2ncc(F)s2)cc1Cl` [Ex 16-61, 4-({4-[(2-amino-1,1-dimethylethyl)amino]butyl}amino)-5-chloro-2-fluoro-N-(5-fluoro-1,3-thiazol-2-yl)benzenesulfonamide], the half-inhibitory concentration (IC50) amounted to 0.021 µM. Still for that read-out and setting: the value for `O=S(=O)(Nc1ncc(F)s1)c1cc(Br)c(NCCCCNC[C@H]2CCCCN2)cc1F` [Ex 16-04, 5-bromo-2-fluoro-N-(5-fluoro-1,3-thiazol-2-yl)-4-[(4-{[(2R)-piperidin-2-ylmethyl]amino}-butyl]amino]benzene-sulfonamide] was 0.011 µM. On the same count and under the same terms, the value for `CNCCNCCCCNc1cc(F)c(S(=O)(=O)Nc2nccs2)cc1Br` [Ex 16-50, 5-bromo-2-fluoro-4-[(4-{[2-(methylamino)ethyl]amino}-butyl)amino]-N-1,3-thiazol-2-ylbenzenesulfonamide] was 0.011 µM. On the same count and under the same terms, the value for `CNCCCNCCCCNc1cc(F)c(S(=O)(=O)Nc2ncns2)cc1Br` [Ex 16-91, 5-bromo-2-fluoro-4-[4-[3-(methylamino)propylamino]butylamino]-N-(1,2,4-thiadiazol-5-yl)benzenesulfonamide] was 0.014 µM. For `NCCNCCCCNc1cc(F)c(S(=O)(=O)Nc2ncns2)cc1Cl` [Ex 16-33, 4-({4-[(2-aminoethyl)-amino]butyl}amino)-5-chloro-2-fluoro-N-1,2,4-thiadiazol-5-ylbenzene-sulfonamide], the IC50 was found to be 0.012 µM.

Turning to `O=S(=O)(Nc1ncns1)c1cc(Br)c(NCCCCN[C@H]2CCNC2)cc1F` [Ex 16-100, (S)-5-bromo-2-fluoro-4-((4-(pyrrolidin-3-ylamino)butyl)amino)-N-(1,2,4-thiadiazol-5-yl)benzenesulfonamide], the IC50 was found to be 0.015 µM. Still for that read-out and setting: the same measure for `C[C@H](CCN)NCCCCNc1cc(F)c(S(=O)(=O)Nc2nccs2)cc1Cl` [Ex 16-26, 4-[(4-{[(1R)-3-amino-1-methylpropyl]amino}butyl)amino]-5-chloro-2-fluoro-N-1,3-thiazol-2-ylbenzene-sulfonamide]: 0.028 µM.

A further assay concerns the target T2, human Nav1.5 (Homo sapiens, UniProt Q14524).
T2 construct: expressed in transfected cells; host or cells: HEK 293
Kind of assay: IonWorks Quattro automated patch-clamp, Nav1.5 (selectivity against Nav1.7). In kind it is cell-based. The settings on record: IonWorks measurement, HEK 293 cells, inactivated state block. Here is the method:
as §1, §2
With `NCCNCCCCNc1cc(F)c(S(=O)(=O)Nc2ncns2)cc1Br` [Ex 16-88, 4-[4-(2-aminoethylamino)butylamino]-5-bromo-2-fluoro-N-(1,2,4-thiadiazol-5-yl)benzenesulfonamide], the “ratio of Nav 1.7 potency:Nav 1.5 potency” value is greater than 3400.

These data come from US10519147B2 (Merck Sharp & Dohme Corp., priority 2015, dated 2019).
